Measurements taken from patent US12535491B2, “Vaccine comprising protein-targeted (PT) extracellular DNA isolated from bacterial matrix” (priority 2018, dated 2026).

How the values were obtained:
HSV-1 = type: cell-based, human Herpes Virus 1
[1] = tested on: amyloid producing Escherichia coli strain VT-156; type: cell-based
[2] = tested on: non-amyloid producer Escherichia coli strain RA-74; type: cell-based
microbial amyloid = type: cell-based, Escherichia coli
beta-amyloid (Aβ) = test: Amount of Aβ in the brain of Tg2576 mice injected with S. aureus bacterial DNA, with or without DNase (sandwich ELISA); type: in vivo, mice (line Tg2576)
From the text: The effect on the model of increased gut permeability in mice was studied. Increased gut permeability allows increased levels of bacterial DNA in the blood circulation, leading to the increase in the level of beta amyloid (Bala, S. et al., 2014; DiBiagio, J. R. et al., 2016). DNAse prevents the appearance of a thermostable protein formed by the extracellular DNA.
Hemizygous transgenic mice expressing familial Alzheimer's disease mutant human (line Tg2576, Hsiao et al., 1996). A total of 70 male mice were used. To identify beta-amyloid (AB) amount, one quarter brain from each animal was homogenized in 70% formic acid at a weight: volume ratio of 100 mg/ml. The homogenate was sonicated for 2 min and centrifuged at 100,000 g for 1 h. After centrifugation, the supernatant fraction was removed and neutralized with 19 vol of Tris-phosphate buffer. Samples were analyzed by a modified sandwich ELISA that detects total AB. To detect human Aβ, aliquots of homogenate were added to Nunc Maxisorb plates coated with monoclonal antibody 6E10 (Senetek) capture antibody. After incubation at 4° C. overnight, human Ab was detected by monoclonal antibody 4G8 (Senetek) conjugated to horseradish peroxidase (HRP). After washing with PBS containing 0.05% Tween 20, the bound peroxidase was detected by the TMB peroxidase kit (Kirkegaard & Perry). Plates were read at 450 nm in a standard plate reader, and unknowns were quantified by comparison to known quantities of freshly dissolved Ab40 (Bachem).
Animals were injected daily, with increasing concentrations of S. aureus bacterial DNA. Control animals were injected with sterile water. DNase (2000 Kunitz units) was administered orally or by IV on day 1.

[3] = tested on: SU-DHL4 target cell lines; test: Antibody-dependent cell-mediated cytotoxicity (ADCC) assay; type: cell-based; conditions: SU-DHL4 target cells
Procedure: The efficacies of Rituximab and Rituximab-Mod were compared based on Binding to CD20-expressing target cells and antibody-dependent cell-mediated cytotoxicity [ADCC] assays.
The binding of Rituximab-Mod and rituximab was assessed on SU-DHL4 cell lines with high (1,000,000) CD20 receptor copy numbers. […] The ability of Rituximab-Mod and rituximab to mediate ADCC was assessed using SU-DHL4 target cell lines. The potency of Rituximab-Mod was higher than that of rituximab.

Compound: C=CC[C@@H]1/C=C(\C)C[C@H](C)C[C@H](OC)[C@H]2O[C@@](O)(C(=O)C(=O)N3CCCC[C@H]3C(=O)O[C@H](/C(C)=C/[C@@H]3CC[C@@H](O)[C@H](OC)C3)[C@H](C)[C@@H](O)CC1=O)[C@H](C)C[C@@H]2OC [Tacrolimus]
- Number (%) of unaltered cells, Herpes virus of type I (HSV-1): 30%
- antiviral activity against the herpes virus (type I) (HSV-1): has the antiviral activity
- Bacterial OD (570 nm) [1]: 0.678
- Bacterial OD (570 nm), Escherichia coli strain RA-74 [2]: 1.382
- decrease in CR binding (microbial amyloid): about 40%

Compound: Pentosan polysulfate
- Bacterial OD (570 nm), Escherichia coli strain VT-56 [1]: 0.547
- Bacterial OD (570 nm), Escherichia coli strain RA-74 [2]: 1.416
- decrease in CR binding (microbial amyloid): about 40%

Compound: CCN(CC)CCCC(C)Nc1c2ccc(Cl)cc2nc2ccc(OC)cc12 (stereo not shown) [Quinacrine]
- Bacterial OD (570 nm) [1]: 0.657
- Bacterial OD (570 nm), Escherichia coli strain RA-74 [2]: 1.406
- decrease in CR binding (microbial amyloid): about 40%

Compound: DNase
- Total Aβ in the brain (beta-amyloid (Aβ); DNA 5 mcg + DNase 5 mcg IV): 94 ± 23 pmol/mg
- Total Aβ in the brain (beta-amyloid (Aβ); DNA 5 mcg + DNase 5 mcg PO): 103 ± 35 pmol/mg
- Total Aβ in the brain (beta-amyloid (Aβ); DNA 20 mcg + DNase 5 mcg IV): 73 ± 12 pmol/mg
- Total Aβ in the brain (beta-amyloid (Aβ); DNA 20 mcg + DNase 5 mcg PO): 95 ± 12 pmol/mg

Compound: rituximab
- EC50 of target cell killing (ADCC) [3]: ~10 ng/mL
